Experimental data from PubChem BioAssay AID2060512 (Molecular Pharmacology Branch, DTP, NCI, 2025).

Test system: 186277-243-T-J2-PDC complex spheroid viability
Experiment: Anticancer human tumor 186277-243-T-J2-PDC patient-derived colon adenocarcinoma cell line growth inhibition [GQUAD]
Details: for viability, T/C: stronger effect = lower value; active means viability on the fitted dose curve at most 10% of control; inactive means the rest
Text: DNA G-quadruplex Stabilizer Agents in Combinations in Complex Spheroids
A high-throughput screen of multi-cell type tumor spheroids was designed to identify active combinations of DNA G-quadruplex stabilizer agents and targeted small molecules. Complex spheroids include a stromal component modeled by human endothelial cells (HUVEC) and fibroblasts modeled by human mesenchymal stem cells (MSCs). The concentration ranges selected for each drug and investigational agent were based upon clinically achievable concentrations if the clinical Cmax of the agent was known.
Compounds. The drugs and investigational agents: pidnarulex (CX-5461; NSC782164), APTO-253 (NSC789042), BRACO-19 (NSC847499), peposertib (NSC802822), ceralasertib (NSC780249), elimusertib (NSC800525), camonsertib (NSC841442), AZD-1390 (NSC803789), olaparib (NSC753686), talazoparib (NSC767125), ART-558 (NSC835418), sotorasib (NSC818433), MRTX-1133 (NSC836407), SN-38 (NSC673596), topotecan (NSC609699), etoposide (NSC141540), doxorubicin (NSC123127), gemcitabine (NSC613327), 5-fluorouracil (NSC19893), paclitaxel (NSC125973), vemurafenib (NSC761431), panobinostat (NSC761190), R-306465 (JNJ-16241199; NSC773264), adavosertib (NSC754352), TP-3654 (NSC805149), carboplatin (NSC241240), KSQ-4279 (NSC840948), and staurosporine (NSC755774) were obtained from the National Cancer Institute (NCI) Developmental Therapeutics Program Chemical Repository (34). The FDA-approved anticancer drug set is available from the NCI Developmental Therapeutics Program. […] The stock solutions were prepared in dimethyl sulfoxide (DMSO, Sigma-Aldrich, St. Louis, MO, cat. D2650) at 800-fold the tested concentration and stored at -70 degrees C prior to their use. All drugs and investigational agents were tested over a range starting from a high concentration at or near the clinical Cmax and decreasing in half-log increments. If the clinical Cmax for an agent had not been determined, the highest concentration tested was 10 microM.
2.3 Cell Culture. All cells were maintained in an incubator at 37 degrees C and 5% CO2 with 95% humidity. The PDC lines were cultured according to standard operating procedures established by the NCI PDMR. All PDCs were thawed and cultured in Matrigel-coated flasks prepared with a working solution of 1X Ham's F-12 nutrient mix, without supplementation (Invitrogen, cat. 11765054), 100 U/mL penicillin-streptomycin (Invitrogen, cat. 15140122), and 2.5% Matrigel (Corning Inc., cat. 354248) for the first three passages. The 857933-349-R-J2-PDC line was cultured in 6C/Colon 1B media, which includes advanced DMEM/F-12 (Thermo Fisher Scientific, cat. 12634028), 10 mM HEPES (Thermo Fisher Scientific, cat. 15630080), 1X GlutaMAX supplement (Thermo Fisher Scientific, cat. 35050061), 0.1 mg/mL primocin (InvivoGen, cat. ant-pm-2), 10% defined fetal bovine serum, heat inactivated (HyClone Laboratories Inc., cat. SH30070.03HI), 50% L-WRN conditioned media (ATCC, cat. CRL-3276), 1.25 mM N-Acetyl-L-cysteine (Sigma-Aldrich, cat. A9165), 10 mM nicotinamide (Sigma-Aldrich, cat. N0636), 1X B-27 supplement (Thermo Fisher Scientific, cat. 17504044), 1X N-2 supplement (Thermo Fisher Scientific, cat. 17502048), 10 microM Y-27632 dihydrochloride (Tocris Bioscience, cat. 1254), and 50 ng/mL human EGF recombinant protein (Thermo Fisher Scientific, cat. PHG0311). The 485176-168-R4-J1-PDC line was cultured in Panc media, which includes all 6C/Colon 1B media components plus 100 ng/mL human FGF-10 (Thermo Fisher Scientific, cat. 100-26), 500 nM SB-431542 (Selleckchem, cat. S1067), and gastrin (Tocris, cat. 3006).
[…]

[1] = curve of first compound, second compound 0.0316 µM
[2] = curve of first compound, second compound 0.1 µM
[3] = curve of first compound, second compound 0.316 µM
[4] = curve of first compound, second compound 1 µM
[5] = curve of first compound, second compound 3.16 µM
[6] = curve of first compound, second compound 10 µM
[7] = second compound 0.0316 µM, first compound 0.0316 µM
[8] = second compound 0.0316 µM, first compound 0.1 µM
[9] = second compound 0.0316 µM, first compound 0.316 µM
[10] = second compound 0.0316 µM, first compound 1 µM
[11] = second compound 0.0316 µM, first compound 3.16 µM
[12] = second compound 0.0316 µM, first compound 10 µM
[13] = second compound 0.1 µM, first compound 0.0316 µM
[14] = second compound 0.1 µM, first compound 0.1 µM
[15] = second compound 0.1 µM, first compound 0.316 µM
[16] = second compound 0.1 µM, first compound 1 µM
[17] = second compound 0.1 µM, first compound 3.16 µM
[18] = second compound 0.1 µM, first compound 10 µM
[19] = second compound 0.316 µM, first compound 0.0316 µM
[20] = second compound 0.316 µM, first compound 0.1 µM
[21] = second compound 0.316 µM, first compound 0.316 µM
[22] = second compound 0.316 µM, first compound 1 µM
[23] = second compound 0.316 µM, first compound 3.16 µM
[24] = second compound 0.316 µM, first compound 10 µM
[25] = second compound 1 µM, first compound 0.0316 µM
[26] = second compound 1 µM, first compound 0.1 µM
[27] = second compound 1 µM, first compound 0.316 µM
[28] = second compound 1 µM, first compound 1 µM
[29] = second compound 1 µM, first compound 3.16 µM
[30] = second compound 1 µM, first compound 10 µM
[31] = second compound 3.16 µM, first compound 0.0316 µM
[32] = second compound 3.16 µM, first compound 0.1 µM
[33] = second compound 3.16 µM, first compound 0.316 µM
[34] = second compound 3.16 µM, first compound 1 µM
[35] = second compound 3.16 µM, first compound 3.16 µM
[36] = second compound 3.16 µM, first compound 10 µM
[37] = second compound 10 µM, first compound 0.0316 µM
[38] = second compound 10 µM, first compound 0.1 µM
[39] = second compound 10 µM, first compound 0.316 µM
[40] = second compound 10 µM, first compound 1 µM
[41] = second compound 10 µM, first compound 3.16 µM
[42] = second compound 10 µM, first compound 10 µM
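Further: spheroids exposed to drugs for 7 days.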

Cc1[nH]c2ccc(F)cc2c1-c1nc2c3cccnc3c3ncccc3c2[nH]1
> 10000 nM: IC50 (compound alone, run of 04/16/2024) | IC50 (compound alone, run of 04/22/2024)
inactive: viability, T/C (compound 0.0316 µM) 100% [middle of 12 runs] | viability, T/C (compound 0.1 µM) 101% [middle of 12 runs] | viability, T/C (compound 1 µM) 107% [middle of 12 runs] | viability, T/C (compound 3.16 µM) 98.9% [middle of 12 runs] | viability, T/C (compound 10 µM) 92.4% [middle of 12 runs]

CC(C)n1c(=O)n(C)c2cnc3cc(F)c(-c4ccc(OCCCN5CCCCC5)nc4)cc3c21 + CN(C)c1ccc(Nc2c3ccc(NC(=O)CCN4CCCC4)cc3nc3cc(NC(=O)CCN4CCCC4)ccc23)cc1
> 10000 nM: IC50 [1] | IC50 [2] | IC50 [3] | IC50 [4] | IC50 [5]
6100 nM: IC50 [6]
inactive: viability, T/C [7] 94.4% | viability, T/C [8] 108% | viability, T/C [9] 91.8% | viability, T/C [10] 98.1% | viability, T/C [11] 109% | viability, T/C [12] 97.9% | viability, T/C [13] 110% | viability, T/C [14] 105% | viability, T/C [15] 102% | viability, T/C [16] 110% | viability, T/C [17] 114% | viability, T/C [18] 95.3% | viability, T/C [19] 97.9% | viability, T/C [20] 115% | viability, T/C [21] 103% | viability, T/C [22] 98.3% | viability, T/C [23] 122% | viability, T/C [24] 93.7% | viability, T/C [25] 132% | viability, T/C [26] 87% | viability, T/C [27] 97.6% | viability, T/C [28] 100% | viability, T/C [29] 111% | viability, T/C [30] 86.1% | viability, T/C [31] 101% | viability, T/C [32] 84.9% | viability, T/C [33] 97.2% | viability, T/C [34] 118% | viability, T/C [35] 119% | viability, T/C [36] 84.8% | viability, T/C [37] 118% | viability, T/C [38] 96.8% | viability, T/C [39] 112% | viability, T/C [40] 88.8% | viability, T/C [41] 66.4% | viability, T/C [42] 37.8%

CC1COCCN1c1cc(C2(S(C)(=N)=O)CC2)nc(-c2ccnc3[nH]ccc23)n1 (stereo unspecified) + CN(C)c1ccc(Nc2c3ccc(NC(=O)CCN4CCCC4)cc3nc3cc(NC(=O)CCN4CCCC4)ccc23)cc1
active: viability, T/C [11] 8.85% | viability, T/C [12] 6.06% | viability, T/C [17] 7.6% | viability, T/C [18] 5.85% | viability, T/C [23] 7.48% | viability, T/C [24] 5.05% | viability, T/C [29] 8.32% | viability, T/C [30] 5.51% | viability, T/C [35] 7.66% | viability, T/C [36] 5.17% | viability, T/C [41] 9.87% | viability, T/C [42] 5.6%
inactive: viability, T/C [7] 95.5% | viability, T/C [8] 100% | viability, T/C [9] 117% | viability, T/C [10] 37.2% | viability, T/C [13] 105% | viability, T/C [14] 102% | viability, T/C [15] 89.4% | viability, T/C [16] 37% | viability, T/C [19] 85.2% | viability, T/C [20] 99.5% | viability, T/C [21] 92.7% | viability, T/C [22] 65.2% | viability, T/C [25] 91% | viability, T/C [26] 89.8% | viability, T/C [27] 96.2% | viability, T/C [28] 48.9% | viability, T/C [31] 91% | viability, T/C [32] 103% | viability, T/C [33] 98.8% | viability, T/C [34] 49.4% | viability, T/C [37] 85.3% | viability, T/C [38] 94% | viability, T/C [39] 110% | viability, T/C [40] 41.7%
803 nM: IC50 [1]
1350 nM: IC50 [3]
986 nM: IC50 [5]
840 nM: IC50 [6]
749 nM: IC50 [2]
972 nM: IC50 [4]
